≈ marks a conversion by molar mass, not a printed value.
Assays:
AECO001 (ATCC25922) = assay: MIC broth microdilution, AECO001; type: cell-based, E. coli; settings: Escherichia coli, ATCC25922, read-out: MIC AECO001
Summary of the method: (§1)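 CLSI-guided microdilution: bacteria passaged overnight at 35° C. on Mueller-Hinton agar, tested in cation-adjusted broth at a final 3×10^5–7×10^5 CFU/mL across 2-fold drug dilutions, read after 18-24 h at 35° C.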

[1] = system: AECO063 (ATCC25922 bearing an acrAB mutation); assay: microbe, parasite or virus in culture; type: cell-based, E. coli; settings: Escherichia coli, ATCC25922, read-out: MIC AECO063
Summary of the method: as §1

APAE001 (ATCC27853) = assay: MIC broth microdilution, APAE001; type: cell-based, P. aeruginosa; settings: Pseudomonas aeruginosa, ATCC27853, read-out: MIC APAE001, APAE001 is ATCC27853
Summary of the method: as §1

[2] = system: APAE006 (strain of P. aeruginosa in which all efflux pumps are inactivated); assay: microbe, parasite or virus in culture; type: cell-based; settings: Pseudomonas aeruginosa, read-out: MIC APAE006, P. aeruginosa, all efflux pumps inactivated
Summary of the method: (§2)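 Strains were grown overnight at 35° C. on Mueller-Hinton agar, suspended to 0.5 McFarland and diluted to a final 3×10^5–7×10^5 CFU/mL. They were then exposed to 2-fold serial drug dilutions in cation-adjusted Mueller-Hinton broth and incubated 18-24 hours at 35° C.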

[3] = system: APAE006 in the presence of 8 micrograms per milliliter of polymyxin B nonapeptide; type: cell-based, P. aeruginosa; settings: in the presence of 8 micrograms per milliliter of polymyxin B nonapeptide
Summary of the method: as §2

[4] = system: AABA1060 (clinical isolate of Acinetobacter baumannii); assay: MIC broth microdilution, AABA1060; type: cell-based; settings: Acinetobacter baumannii, read-out: MIC AABA1060
Summary of the method: as §1

[5] = system: ASAU001 (laboratory strain of S. aureus, ATCC29213); assay: MIC broth microdilution, ASAU001; type: cell-based; settings: Staphylococcus aureus, ATCC29213, read-out: MIC ASAU001
Summary of the method: as §1

AECO001 HSA AGP = assay: MIC broth microdilution, AECO001 HSA AGP; type: cell-based, E. coli; settings: Escherichia coli
Description: Bacterial isolates were cultivated from −70° C. frozen stocks by overnight passages at 35° C. in ambient air on Mueller-Hinton agar (Beckton Dickinson, Franklin Lakes, N.J.). Clinical isolates tested were obtained from various geographically diverse hospitals in the US and abroad (Focus Diagnostics, Herndon, Va. and JMI, North Liberty, Iowa). Quality control strains were from the American Type Culture Collection (ATCC; Rockville, Md.). Additional primary panel strains were generated using standard molecular biology techniques.
Minimum Inhibitory Concentrations (MICs) were determined by the broth microdilution method in accordance with the Clinical and Laboratory Standards Institute (CLSI) guidelines. In brief, organism suspensions were adjusted to a 0.5 McFarland standard to yield a final inoculum between 3×10^5 and 7×10^5 colony-forming units (CFU)/mL. Drug dilutions and inocula were made in sterile, cation adjusted Mueller-Hinton Broth (Beckton Dickinson). An inoculum volume of 100 μL was added to wells containing 100 μL of broth with 2-fold serial dilutions of drug. All inoculated microdilution trays were incubated in ambient air at 35° C. for 18-24 hours. […] Performance of the assay was monitored by the use of laboratory quality-control strains and levofloxacin, a compound with a defined MIC spectrum, in accordance with CLSI guidelines.
*AECO001 is ATCC25922, AECO063 is ATCC25922 bearing an acrAB mutation, APAE001 is ATCC27853, APAE006 is a strain of P. aeruginosa in which all efflux pumps are inactivated, APAE006+PMBN indicates MICs with the indicated strain in the presence of 8 micrograms per milliliter of polymyxin B nonapeptide, AABA1060 is a clinical isolate of Acinetobacter baumannii, ASAU001 is a laboratory strain of S. aureus (ATCC29213).

Compound | MIC (AECO001 (ATCC25922)) [µg/mL] | MIC [1] [µg/mL] | MIC (APAE001 (ATCC27853)) [µg/mL] | MIC [2] [µg/mL] | MIC APAE006 + PMBN [3] | MIC [4] [µg/mL] | MIC [5] [µg/mL] | MIC (AECO001 HSA AGP) [µg/mL]
C[C@@H](O)[C@H](NC(=O)c1ccc(/C=C\C#Cc2ccc(CN3CCOCC3)cc2)cc1)C(=O)NO [Example 30-12b] | 2 to 16 (≈ 4.31 to 34.5 µM) | < 2 | 2 to 16 (≈ 4.31 to 34.5 µM) | < 2 | A (MIC's of 2.0 μg/mL or less = A) | 16 to 64 (≈ 34.5 to 138 µM) | > 64 | 16 to 64 (≈ 34.5 to 138 µM)
CC(C)(N)C(NC(=O)c1ccc(C#Cc2ccc(CNCC(F)F)cc2)cc1)C(=O)NO (centres unmarked) [Example 137-7] | < 2 | < 2 | < 2 | < 2 | A (MIC's of 2.0 μg/mL or less = A) | 2 to 16 (≈ 4.5 to 36 µM) | 16 to 64 (≈ 36 to 144 µM) | 2 to 16 (≈ 4.5 to 36 µM)
C[C@@H](N)[C@H](NC(=O)c1ccc(C#Cc2ccc(CNCC(C)(C)C)cc2)cc1)C(=O)NO [Example 118-4] | < 2 | < 2 | < 2 | < 2 | A (MIC's of 2.0 μg/mL or less = A) | 16 to 64 (≈ 36.7 to 147 µM) | > 64 | 2 to 16 (≈ 4.58 to 36.7 µM)
C[C@H](N)[C@H](NC(=O)c1ccc(C#Cc2ccccc2)cc1)C(=O)NO [Example 133-1, N-((1S,2S)-2-Amino-1-hydroxycarbamoyl-propyl)-4-phenylethynyl-benzamide] | < 2 | < 2 | < 2 | < 2 | A (MIC's of 2.0 μg/mL or less = A) | < 2 | 16 to 64 (≈ 47.4 to 190 µM) | 2 to 16 (≈ 5.93 to 47.4 µM)
C[C@@H](N)[C@H](NC(=O)c1ccc(/C=C/C#Cc2ccccc2)cc1)C(=O)NO [Example 114-1, N-((1S,2R)-2-Amino-1-hydroxycarbamoyl-propyl)-4-((E)-4-phenyl-but-1-en-3-ynyl)-benzamide] | < 2 | < 2 | < 2 | < 2 | A (MIC's of 2.0 μg/mL or less = A) | < 2 | 2 to 16 (≈ 5.5 to 44 µM) | 2 to 16 (≈ 5.5 to 44 µM)
C[C@@H](O)[C@H](NC(=O)c1ccc(C#CC#Cc2ccc(C(F)(F)F)cc2)cc1)C(=O)NO [Example 82-6] | < 2 | < 2 | 2 to 16 (≈ 4.65 to 37.2 µM) | 2 to 16 (≈ 4.65 to 37.2 µM) | A (MIC's of 2.0 μg/mL or less = A) | 16 to 64 (≈ 37.2 to 149 µM) | 16 to 64 (≈ 37.2 to 149 µM) | 2 to 16 (≈ 4.65 to 37.2 µM)
NCC(=O)NCc1ccc(C#Cc2ccc(C(=O)N[C@@H](CN)C(=O)NO)cc2)cc1 [Example 116-1, (S)—N-(3-amino-1-(hydroxyamino)-1-oxopropan-2-yl)-4-((4-((2-aminoacetamido)methyl)phenyl)ethynyl)benzamide] | 16 to 64 (≈ 39.1 to 156 µM) | 16 to 64 (≈ 39.1 to 156 µM) | 2 to 16 (≈ 4.88 to 39.1 µM) | < 2 | A (MIC's of 2.0 μg/mL or less = A) | 16 to 64 (≈ 39.1 to 156 µM) | 16 to 64 (≈ 39.1 to 156 µM) | 16 to 64 (≈ 39.1 to 156 µM)
CC(C)(O)[C@H](NC(=O)c1ccc(C#C/C=C/c2ccccc2)cc1)C(=O)NO [Example 104-3] | < 2 | < 2 | < 2 | < 2 | A (MIC's of 2.0 μg/mL or less = A) | < 2 | 16 to 64 (≈ 42.3 to 169 µM) | 2 to 16 (≈ 5.29 to 42.3 µM)
C[C@@H](O)[C@H](NC(=O)c1ccc(C#CC#Cc2ccc(CNC3CC3)cc2)cc1)C(=O)NO [Example 87-2] | < 2 | < 2 | < 2 | < 2 | A (MIC's of 2.0 μg/mL or less = A) | 16 to 64 (≈ 37.1 to 148 µM) | 16 to 64 (≈ 37.1 to 148 µM) | < 2
C[C@@H](N)[C@H](NC(=O)c1ccc(/C=C/C#Cc2ccc(CO)cc2)cc1)C(=O)NO [Example 112-1] | < 2 | < 2 | < 2 | < 2 | A (MIC's of 2.0 μg/mL or less = A) | 2 to 16 (≈ 5.08 to 40.7 µM) | > 64 | 16 to 64 (≈ 40.7 to 163 µM)
O=C(N[C@H](C(=O)NO)C1CC1)c1ccc(/C=C/C#Cc2ccc(CN3CCOCC3)cc2)cc1 [Example 110-9] | < 2 | < 2 | 2 to 16 (≈ 4.35 to 34.8 µM) | < 2 | A (MIC's of 2.0 μg/mL or less = A) | 2 to 16 (≈ 4.35 to 34.8 µM) | > 64 | 2 to 16 (≈ 4.35 to 34.8 µM)
C[C@@H](N)[C@H](NC(=O)c1ccc(CCc2ccc(CN3CCOCC3)cc2)cc1)C(=O)NO [Example 136-1, N-((2S,3R)-3-amino-1-(hydroxyamino)-1-oxobutan-2-yl)-4-(4-(morpholinomethyl)phenethyl)benzamide] | 2 to 16 (≈ 4.54 to 36.3 µM) | < 2 | 2 to 16 (≈ 4.54 to 36.3 µM) | < 2 | A (MIC's of 2.0 μg/mL or less = A) | 16 to 64 (≈ 36.3 to 145 µM) | 16 to 64 (≈ 36.3 to 145 µM) | 16 to 64 (≈ 36.3 to 145 µM)
C[C@@H](N)[C@H](NC(=O)c1ccc(C#CC#Cc2cccc(F)c2)cc1)C(=O)NO [Example 82-5] | < 2 | < 2 | < 2 | < 2 | A (MIC's of 2.0 μg/mL or less = A) | 2 to 16 (≈ 5.27 to 42.2 µM) | 2 to 16 (≈ 5.27 to 42.2 µM) | 2 to 16 (≈ 5.27 to 42.2 µM)
CC(C)(O)[C@H](NC(=O)c1ccc(/C=C/C#Cc2ccc(CNC3CC3)cc2)cc1)C(=O)NO [Example 113-5] | < 2 | < 2 | < 2 | < 2 | A (MIC's of 2.0 μg/mL or less = A) | < 2 | 16 to 64 (≈ 35.8 to 143 µM) | < 2
C[C@@H](N)[C@H](NC(=O)c1ccc(C#C/C=C/c2ccc(CN3CCOCC3)cc2)cc1)C(=O)NO [Example 96-4] | < 2 | < 2 | 2 to 16 (≈ 4.32 to 34.6 µM) | < 2 | A (MIC's of 2.0 μg/mL or less = A) | 2 to 16 (≈ 4.32 to 34.6 µM) | > 64 | 2 to 16 (≈ 4.32 to 34.6 µM)
C[C@@H](O)[C@H](NC(=O)c1ccc(C2CCN(c3ccc(CN4CCOCC4)cc3)CC2)cc1)C(=O)NO [Example 41-5, N-((1S,2R)-2-Hydroxy-1-hydroxycarbamoyl-propyl)-4-[1-(4-morpholin-4-ylmethyl-phenyl)-piperidin-4-yl]-benzamide] | > 64 | 16 to 64 (≈ 32.2 to 129 µM) | 16 to 64 (≈ 32.2 to 129 µM) | < 2 | A (MIC's of 2.0 μg/mL or less = A) | > 64 | > 64 | > 64
COCc1ccc(C#C/C=C/c2ccc(C(=O)N[C@H](C(=O)NO)[C@@H](C)N)cc2)cc1 [Example 113-9] | < 2 | < 2 | < 2 | < 2 | A (MIC's of 2.0 μg/mL or less = A) | < 2 | 16 to 64 (≈ 39.3 to 157 µM) | 2 to 16 (≈ 4.91 to 39.3 µM)
C[C@@H](N)[C@H](NC(=O)c1ccc(C#CC#Cc2cccnc2)cc1)C(=O)NO [Example 88-3] | < 2 | < 2 | < 2 | < 2 | A (MIC's of 2.0 μg/mL or less = A) | 2 to 16 (≈ 5.52 to 44.2 µM) | > 64 | 2 to 16 (≈ 5.52 to 44.2 µM)
O=C(N[C@H](C(=O)NO)C1CCNCC1)c1ccc(C#Cc2ccc(CN3CCOCC3)cc2)cc1 [Example 65-6, N—((S)-hydroxycarbamoyl-piperidin-4-yl-methyl)-4-(4-morpholin-4-ylmethyl-phenylethynyl)-benzamide] | 16 to 64 (≈ 33.6 to 134 µM) | 2 to 16 (≈ 4.2 to 33.6 µM) | 16 to 64 (≈ 33.6 to 134 µM) | 2 to 16 (≈ 4.2 to 33.6 µM) | A (MIC's of 2.0 μg/mL or less = A) | 16 to 64 (≈ 33.6 to 134 µM) | > 64 | > 64

From patent US9617256B2 (priority 2007, dated 2017)
